Results: patent US20020065314A1, “COMPOSITIONS AND METHOD FOR STIMULATING HAIR GROWTH” (priority 1995, published 2002)
“Also recorded” adds a separate entry of the source.

Experiments:
C57BL/KsJ db/+ mice = assay: Application to full-thickness incisional and excisional wounds; format: in vivo, mouse
Experimental: An incisional, full-thickness wound, about 2 cm long was made through the dorsal skin of five mice (strain C57BL/KsJ db/+). A single dose of about 10 mg of n-butyl cyanoacrylate (in 10 μl of Nexaband^R Liquid) was applied to the bottom of the wound, and the wound closed with two surgical clips. Control animals which received 10 μl of phosphate buffered saline (PBS: 0.144 g/l KH2PO4, 9.0 g/l NaCl, 0.795 g/l Na2HPO4.7H2O; pH 7.2) were processed identically. During the period of 1-90 days post application, the effect of n-butyl cyanoacrylate treatment was examined by macroscopic observation.
In a group of five C57BL/KsJ db/+ mice, a full-thickness excisional wound was made with a biopunch (6 mm diameter) on the dorsal skin. A single dose of 9 mg of n-butyl cyanoacrylate (in 10 μl of Nexaband^R Liquid) was applied to the bottom of the wound, and the wound was left open. Control animals which received 10 μl of PBS were treated identically.

TGF-β2,3 = assay: Immunohistochemistry of growth factors in treated skin; format: in vivo, mouse; conditions: throughout the study period
Experimental: Forty stock female mice of strain C57BL/KsJ db/+ at eight weeks of age were treated with a single dose of n-butyl cyanoacrylate applied topically to the shaved dorsum. Animals were sacrificed at days 4, 6, 8, 10, 12, 14, 16, 18, 20, and 22 post-treatment, and skin samples were excised to yield an area of n-butyl cyanoacrylate treated skin together with a contiguous, adjacent sample of untreated skin. In preparation for immunohistochemistry, samples were washed in PBS, fixed in 10% formalin, and secondarily fixed in Bouin's solution prior to paraffin embedding. Multiple 4-5 μm sections were placed on slides pre-coated with 3-aminopropylethoxysilane.
The following primary antibodies were used: anti-TGF-β1 neutralizing antibody; anti-TGF-β2,3; and anti-EGF receptor.

[1] = system: C57BL/KsJ db/+ and C57BL/KsJ db/db mice; assay: Effect of isobutyl cyanoacrylate on hair growth, topical; format: in vivo, mouse; conditions: C57BL/KsJ db/db, 10 μl cm^−2 topical
Experimental: The following experiment was performed to identify the effect of isobutyl cyanoacrylate, a structural analog of n-butyl cyanoacrylate, on hair growth. The shaved backs of C57BL/KsJ db/+ and C57BL/KsJ db/db mice were treated topically at a dose of 10 μl cm^−2 with either isobutyl cyanoacrylate (Sigma Chemical Co., St Louis, Mo.) or n-butyl cyanoacrylate.

Sprague Dawley rats = assay: Single topical application, hair growth in rats; format: in vivo, rat
From the text: (§1) At the gross level, the hair growth in the shaved treated area occurs at 8-12 days and reaches full length at about 14-20 days post treatment, however, the remainder of the shaved untreated area remains hairless and the hair follicles small (in telogen (resting) phase)(5A-5B). The response of hair growth to the n-butyl cyanoacrylate stimulus is very similar in 6 other strains of mice (C57BL/KsJ +/+, C57BL/KsJ db/db, Balb/cBYj +/+, Balb/cBYj nu/+, HRS/J hr/+, and RHJ/LeJ hr^rh-j/+) (FIGS. 6A-6C) and Sprague Dawley rats (FIGS. 7A-7B). The hair growth rate in the fastest growth period (at about 10-15 days post treatment) reaches 1 mm per day. This is entirely consistent with the microscopically observed stimulation of hair follicles following treatment.

NIH/3T3 fibroblasts = assay: Fibroblast cell proliferation assay with extracts of treated skin; format: cell-based
Experimental: A single topical application of 20 mg of n-butyl cyanoacrylate was made to an area of shaved skin on the dorsum of strain C57BL/KsJ db/+ mice. At days 10 and 20 post-treatment, skin samples were excised from treated areas. Skin tissue was frozen in dry ice, minced, homogenized in ice-cold PBS, and centrifuged at 15,000 g for 30 minutes at 4° C. The protein concentration of supernatants was adjusted to 1.0 mg/ml by the BioRad assay procedure (BioRad Laboratories, Richmond, Calif.). Skin samples from untreated areas of the same strain were harvested and processed identically. Mouse serum albumin was prepared at a concentration of 1.0 mg/ml in PBS as a control. An aliquot of each supernatant extract was fractionated according to size with a nominal 30 kilo Dalton (kDa) cutoff, and the low molecular weight fraction (≦30 kDa) was included in the fibroblast cell proliferation assay, as follows.
The supernatant extracts from treated and untreated skin samples, and mouse serum albumin control, were added to a quartet of wells in a 96 well plate, and 2-fold serially diluted 11 times. NIH/3T3 fibroblasts (ex American Type Culture Collection, Rockville, Md.) were harvested at about 80% confluence, seeded into each well at a density of 5,000 cells per well, and supplemented with serum-free assay medium (QBSF 56, Quality Biological Inc., Gaithersburg, Md.). Cell proliferation was determined according to the protocol of the CellTitre 96 Non-Radioactive Cell Proliferation Assay (Promega, Madison, Wis.).

[2] = system: C57BL/KsJ db/+ mice and 6 other strains of mice; assay: Single topical application to shaved dorsum of mice: cutaneous changes and hair growth; format: in vivo, mouse
From the text: The dorsal aspect of C57BL/KsJ db/+ female mice was shaved and a single topical dose of n-butyl cyanoacrylate (formulated as Nexaband^R Liquid) was applied. […] At this early stage some of these new aggregates form laminae and appear to constitute neo-angiogenesis. At day 1 post application, the gross appearance of inflammation was still apparent, and there was microscopic evidence for the formation of a lumen from an aggregate of cells in the subcutaneous layer. […] These changes were only observed in the treated area. […] Between eight and 12 days post application, hair follicles and new hair were present at the sites of application; the remainder of the shaved area remained hairless. Epidermal and dermal thickening and new hair follicle development in treated skin were pronounced until days 10-20 post application (FIGS. 3A-3B), at which time large mature hair follicles traversed the entire thickness of the dermis and subcutaneous layer (FIG. 3C). Hair follicle density reached a maximum level at about days 20-30 post application, at which time the epithelium and connective tissue elements began to return to their pre-treatment appearance (FIGS. 4A-4B).
as §1

[3] = C57BL/KsJ db/+, post application

C=C(C#N)C(=O)OCCCC [n-butyl cyanoacrylate]
microscopic examination of wound site (C57BL/KsJ db/+ mice; full thickness incisional or excisional wound): induced de novo hair follicle formation in the subcutaneous adipose layer, in the dermis, as well as in the wound site | hair growth at wound (photograph) (C57BL/KsJ db/+ mice; incision wound, day 17 post treatment): profound hair growth along the linear wound margin | hair growth at wound (C57BL/KsJ db/+ mice; incisional and excisional wounds): stimulated hair growth along the wound margin | histology of wound site (C57BL/KsJ db/+ mice; incisional wound, day 17 post treatment): development of many new hair follicles and little scar tissue in the wound site | intensity of TGF-β2,3 stain in the epidermis (TGF-β2,3): greater than that of TGF-β1 | Hair growth [1]: 3+ (high hair regeneration with an area larger than 50% of the treated area) | histology, hair follicle density treated vs untreated area (Sprague Dawley rats; Sprague Dawley rat): much higher density of hair follicles in treated area | hair growth on dorsum (photograph) (Sprague Dawley rats; Sprague Dawley rat, 23 days post application): hair growth appears as a rectangle pattern | time over which no shedding of induced hair has been found (Sprague Dawley rats; rats, post treatment): over 210 days | activity of extract from skin harvested at 20 days post-treatment vs 10 days (NIH/3T3 fibroblasts): more active than the extract from skin harvested at 10 days post-treatment | activity of protein extracts of treated skin vs extract of untreated skin (NIH/3T3 fibroblasts; skin treated topically with 20 mg, harvested days 10 and 20): more active in stimulating proliferation of NIH/3T3 cells | activity of low molecular weight fraction (30 KDa or less) of skin extract (NIH/3T3 fibroblasts; treated and untreated skin): no discernible effect on cell proliferation; also recorded: filtration step removes stimulation | response of hair growth compared with C57BL/KsJ db/+ ([2]; 6 other strains of mice and Sprague Dawley rats): very similar | hair growth on dorsum (photograph) ([2]; Balb/cBYj nu/+, 19 days post application): hair growth appears in a circle pattern | hair follicle number, maximum increase treated vs untreated areas ([2]; C57BL/KsJ db/+): about 2 fold | histology of treated skin ([2]; C57BL/KsJ db/+, 16 days following application): large mature hair follicles traversing the entire thickness of the skin | hair growth on dorsum (photograph) ([2]; C57BL/KsJ db/+, 17 days post application): triangle pattern of hair growth | histology of treated skin vs adjacent untreated area ([2]; C57BL/KsJ db/+, 19 days after topical treatment): high concentration of large mature hair follicles | scanning electron micrograph, treated vs adjacent untreated area ([2]; C57BL/KsJ db/+, 23 days after treatment): higher density of hairs and deeper hair roots in the treated area | histology of treated skin ([2]; C57BL/KsJ db/+, day 3 post application): multilayered epidermis, thickened dermis, and epidermal peg elongation; also recorded: evidence of trichogenesis was clearly seen at the treatment site | histology of treated skin ([2]; C57BL/KsJ db/+, day 10 post application): increase in the number of mature hair follicles; also recorded: new epithelial pegs had developed into mature hair follicles | thickness of the dermis layer, increase treated vs untreated areas ([2]; C57BL/KsJ db/+, days 16-20 post treatment): 1.5 fold | thickness of the dermis layer, treated vs untreated areas ([2]; C57BL/KsJ db/+, first day after treatment): about 1.3 fold | time of maximum hair follicle density [2, 3]: 20 to 30 days | time until which epidermal and dermal thickening and new hair follicle development were pronounced [2, 3]: 10 to 20 days | time at which dermis returns to normal thickness ([2]; C57BL/KsJ db/+, post treatment): about 70 days | time at which epidermis returns to normal thickness ([2]; C57BL/KsJ db/+, post treatment): about 40 days | time at which hair reaches full length ([2]; C57BL/KsJ db/+, post treatment): 14 to 20 days | thickness of the epidermis layer, maximum increase in treated areas vs maximum level in untreated areas ([2]; C57BL/KsJ db/+, topical): about 2 fold | early change of treated skin ([2]; C57BL/KsJ db/+, within six hours of application): slight thickening of the treated skin | time at which new hair follicle formation occurs in treated area ([2]; after treatment): 2 to 3 days | hair growth rate in the fastest growth period ([2]; at about 10-15 days post treatment): 1 mm per day | hair growth on dorsum (photograph) ([2]; diabetic C57BL/KsJ db/db, 27 days post application): hair growth appears in a rectangle pattern | hair follicle number, maximum in treated vs untreated areas ([2]; diabetic strain C57BL/KsJ db/db): about 4 fold | time hair regrowth in treated areas remains unchanged while shaved untreated areas are hairless ([2]; genetically healing-impaired diabetic mice, post treatment): more than 216 days | time over which no shedding of induced hair has been found ([2]; mice, post treatment): > 335 days | length of new hairs over those in adjacent untreated area ([2]; mouse, in vivo): 1-2 mm | localization of the hair growth response ([2]; mouse, in vivo): completely localized to the area where the stimulator is applied | time at which hair growth occurs (is seen) in shaved treated area ([2]; post treatment, single topical dose): 8 to 12 days | hair regrowth after repeated shaving ([2]; single application, area subsequently shaved three times at 20-day intervals): the hair keeps regrowing in the treated areas | reproducibility of hair growth induced (mice and rats; 10 mg/10 μl cm^−2, more than 700 normal adult mice and rats, and 80 diabetic (db/db) animals): 100% | side effect, toxic effect or tumor-like tissue formation after the treatment (mice and rats; in vivo): No any side effect or toxic effect or tumor-like tissue formation after the treatment has been observed except for a mild inflammation shortly after application | hair growth in normal intact skin, in skin of animals pre-treated with anticancer drugs, and at edges of wounds (mice and rats; two species (rat and mouse), seven strains of mouse): stimulate hair growth
